Experimental data reported in US20240016765A1, “Use of an alkaloid compound in the preparation of products for the prevention and/or treatment of cardiac damage” (NORTHWEST INSTITUTE OF PLATEAU BIOLOGY, CHINESE ACADEMY OF …, priority 2021, published 2024).

What was measured:
Assay type in all cases: cell-based
Cleaved-Caspase-3 = test: Western blot of Cleaved-Caspase-3 in DOX-treated H9c2 cardiomyocytes; conditions: FIG. 3
Protocol: (§1) (2) Incubate H9c2 cells with alkaloid compound I for 1 hour, then add […] DOX and incubate for 24 hours; extract the proteins, proceed with hydrolysis and collect the resulting solution, centrifuge at 12000 rpm for 15 minutes, collect the supernatant and discard the precipitate, store under −80° C. until analysis. Perform SDS-PAGE electrophoresis (Stepl voltage set at 80V for 30 minutes, followed by Step2 voltage set at 120V for 180 minutes), using 5% concentrated gel. Carry out membrane transfer using a PVDF membrane, with a current of 80 mA for 30 minutes. Then, conduct the closure and hybridization by using 5% skim milk powder for 1 hour of closure, followed by overnight incubation with primary antibody, and 1-2 hours of incubation with secondary antibody at room temperature with gentle shaking. Finally, visualize the proteins by using ECL reagent and observe the expression of Caspase-3 and p-JNK/JNK proteins using a gel imaging system.

H9c2 cardiomyocytes [1] = test: Toxicity of alkaloid compound I on H9c2 cardiomyocytes (MTT colorimetric method); conditions: 24 h incubation, FIG. 1
Protocol: H9c2 cells are incubated with different concentrations (0.1 μM, 1 μM, 5 μM, 10 μM, 20 μM, 40 μM, 80 μM, 160 μM) of alkaloid compounds I for 24 h, and then the toxic effects of the alkaloid compounds on cardiomyocytes are evaluated by MTT colorimetric method.

p-JNK = test: Western blot of p-JNK/JNK in DOX-treated H9c2 cardiomyocytes; conditions: FIG. 4; for p-JNK expression level compared with DOX model group: 1 h incubation, then DOX 24 h
Protocol: as §1

H9c2 cardiomyocytes [2] = test: Effect on DOX-induced H9c2 cardiomyocyte toxicity (MTT colorimetric assay); conditions: 1 h pre-incubation, then 2.5 μM DOX 24 h, FIG. 2
Protocol: (1) H9c2 cells are pre-incubated with alkaloid compound I for lh, then add 2.5 μM doxorubicin (DOX), incubate for 24 h. MTT colorimetric assay is used to determine the apoptotic activity of alkaloid compound I on DOX-induced cardiomyocytes and determine the optimal range of the dose concentration.

| Structure (SMILES) | Cleaved-Caspase-3 expression level compared with DOX model group (Cleaved-Caspase-3; 10 μM, 20 μM and 40 μM, 1 h incubation, then DOX 24 h) | toxic effect on H9c2 cell viability compared with Con group (H9c2 cardiomyocytes [1]; 80 μM) | toxic effect on H9c2 cell viability compared with Con group (H9c2 cardiomyocytes [1]; 0.1-40 μM) | p-JNK expression level compared with DOX model group (p-JNK; high-dose 40 μM) | p-JNK expression level compared with DOX model group (p-JNK; low-dose 10 μM) | p-JNK expression level compared with DOX model group (p-JNK; moderate-dose 20 μM) | difference from DOX model group in DOX-induced cardiomyocyte toxicity (H9c2 cardiomyocytes [2]; 5-80 μM) | inhibition of DOX-induced cardiomyocyte toxicity compared with DOX model group (H9c2 cardiomyocytes [2]; different concentration ranges) | Cleaved-Caspase-3 expression level compared with Con group (Cleaved-Caspase-3; DOX model group, DOX 24 h) | p-JNK expression level compared with Con group (p-JNK; DOX model group, DOX 24 h) |
| --- | --- | --- | --- | --- | --- | --- | --- | --- | --- | --- |
| O=C(/C=C/c1ccc(O)cc1)NCCCCO [compound I, 4-[(E)-p-coumaroylamino]butan-1-ol] | able to inhibit the elevation of Cleaved-Caspase-3 level induced by DOX to varying degrees | significantly different compared with the Con group | not statistically different from the Con group | a highly significant difference | no statistically significant difference | a highly significant difference | a significant difference or a highly significant difference | all exhibit inhibition of DOX-induced cardiomyocyte toxicity |  |  |
| COc1cccc2c1C(=O)c1c(O)c3c(c(O)c1C2=O)C[C@@](O)(C(=O)CO)C[C@@H]3O[C@H]1C[C@H](N)[C@H](O)[C@H](C)O1 [DOX, doxorubicin, reference compound] |  |  |  |  |  |  |  |  | significantly higher | significantly higher |
